Measurements published in PubChem BioAssay AID1963844 (Molecular Pharmacology Branch, DTP, NCI, 2024).

Test system: 422866-222-R5-J1-PDC complex spheroid viability
Assay: Anticancer human tumor 422866-222-R5-J1-PDC patient-derived pancreatic adenocarcinoma cell line growth inhibition [POLQ]
Settings: for IC50: curve of first compound; for viability, T/C: stronger effect = lower value
Outline: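 PDC + HUVEC + MSC complex spheroids; POLQ inhibitors ± partner drugs; top conc. at/near clinical Cmax, else 10 microM (SN-38 1 microM), half-log dilutions; 37 degrees C, 5% CO2.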
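Note: spheroids exposed to compounds for one week before readout.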
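Throughout, for viability, T/C: percent of DMSO vehicle wells luminescence so 100% = untreated viability.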

Compound: C=CC(=O)N1CCN(c2nc(=O)n(-c3c(C)ccnc3C(C)C)c3nc(-c4c(O)cccc4F)c(F)cc23)C(C)C1 (centres undefined) + COC1C(OC(N)=O)C(O)C(Oc2ccc3c(O)c(NC(=O)c4ccc(O)c(CC=C(C)C)c4)c(=O)oc3c2C)OC1(C)C
- IC50 (second compound 0.0316 µM): < 31.6 nM
- IC50 (second compound 0.1 µM): < 31.6 nM
- IC50 (second compound 0.316 µM): < 31.6 nM
- IC50 (second compound 1 µM): < 31.6 nM
- IC50 (second compound 3.16 µM): < 31.6 nM
- IC50 (second compound 10 µM): < 31.6 nM
- viability, T/C (second compound 0.0316 µM, first compound 0.0316 µM): 33.4%
- viability, T/C (second compound 0.0316 µM, first compound 0.1 µM): 26.7%
- viability, T/C (second compound 0.0316 µM, first compound 0.316 µM): 29%
- viability, T/C (second compound 0.0316 µM, first compound 1 µM): 22.4%
- viability, T/C (second compound 0.0316 µM, first compound 3.16 µM): 28%
- viability, T/C (second compound 0.0316 µM, first compound 10 µM): 33%
- viability, T/C (second compound 0.1 µM, first compound 0.0316 µM): 32.8%
- viability, T/C (second compound 0.1 µM, first compound 0.1 µM): 28.9%
- viability, T/C (second compound 0.1 µM, first compound 0.316 µM): 23.3%
- viability, T/C (second compound 0.1 µM, first compound 1 µM): 23.7%
- viability, T/C (second compound 0.1 µM, first compound 3.16 µM): 23.2%
- viability, T/C (second compound 0.1 µM, first compound 10 µM): 27.1%
- viability, T/C (second compound 0.316 µM, first compound 0.0316 µM): 29.9%
- viability, T/C (second compound 0.316 µM, first compound 0.1 µM): 25.1%
- viability, T/C (second compound 0.316 µM, first compound 0.316 µM): 24.3%
- viability, T/C (second compound 0.316 µM, first compound 1 µM): 21%
- viability, T/C (second compound 0.316 µM, first compound 3.16 µM): 24.4%
- viability, T/C (second compound 0.316 µM, first compound 10 µM): 28.7%
- viability, T/C (second compound 1 µM, first compound 0.0316 µM): 34.4%
- viability, T/C (second compound 1 µM, first compound 0.1 µM): 30.6%
- viability, T/C (second compound 1 µM, first compound 0.316 µM): 28.4%
- viability, T/C (second compound 1 µM, first compound 1 µM): 28.4%
- viability, T/C (second compound 1 µM, first compound 3.16 µM): 20.8%
- viability, T/C (second compound 1 µM, first compound 10 µM): 25.6%
- viability, T/C (second compound 3.16 µM, first compound 0.0316 µM): 31.3%
- viability, T/C (second compound 3.16 µM, first compound 0.1 µM): 27.1%
- viability, T/C (second compound 3.16 µM, first compound 0.316 µM): 28.3%
- viability, T/C (second compound 3.16 µM, first compound 1 µM): 23.7%
- viability, T/C (second compound 3.16 µM, first compound 3.16 µM): 28.2%
- viability, T/C (second compound 3.16 µM, first compound 10 µM): 29.3%
- viability, T/C (second compound 10 µM, first compound 0.0316 µM): 32.2%
- viability, T/C (second compound 10 µM, first compound 0.1 µM): 26.8%
- viability, T/C (second compound 10 µM, first compound 0.316 µM): 30%
- viability, T/C (second compound 10 µM, first compound 1 µM): 22.9%
- viability, T/C (second compound 10 µM, first compound 3.16 µM): 25.4%
- viability, T/C (second compound 10 µM, first compound 10 µM): 28.6%

Compound: CC(=O)O[C@H]1C(=O)[C@@]2(C)[C@H]([C@H](OC(=O)c3ccccc3)[C@]3(O)C[C@H](OC(=O)[C@H](O)[C@@H](NC(=O)c4ccccc4)c4ccccc4)C(C)=C1C3(C)C)[C@]1(OC(C)=O)CO[C@@H]1C[C@@H]2O + Nc1ccc(C#CCN(C(=O)Cc2ncc(C(F)(F)F)cc2C(F)(F)F)c2ccc(F)cc2)nn1
- IC50 (second compound 0.0316 µM): > 3000 nM
- IC50 (second compound 0.1 µM): > 3000 nM
- IC50 (second compound 0.316 µM): < 9.49 nM
- IC50 (second compound 1 µM): > 3000 nM
- IC50 (second compound 3.16 µM): < 9.49 nM
- IC50 (second compound 10 µM): > 3000 nM
- viability, T/C (second compound 0.0316 µM, first compound 0.00949 µM): 60.5%
- viability, T/C (second compound 0.0316 µM, first compound 0.03 µM): 56%
- viability, T/C (second compound 0.0316 µM, first compound 0.0949 µM): 48.5%
- viability, T/C (second compound 0.0316 µM, first compound 0.3 µM): 51.8%
- viability, T/C (second compound 0.0316 µM, first compound 0.949 µM): 61.9%
- viability, T/C (second compound 0.0316 µM, first compound 3 µM): 63.6%
- viability, T/C (second compound 0.1 µM, first compound 0.00949 µM): 56.8%
- viability, T/C (second compound 0.1 µM, first compound 0.03 µM): 58.3%
- viability, T/C (second compound 0.1 µM, first compound 0.0949 µM): 53.6%
- viability, T/C (second compound 0.1 µM, first compound 0.3 µM): 46.4%
- viability, T/C (second compound 0.1 µM, first compound 0.949 µM): 53%
- viability, T/C (second compound 0.1 µM, first compound 3 µM): 65.4%
- viability, T/C (second compound 0.316 µM, first compound 0.00949 µM): 53.3%
- viability, T/C (second compound 0.316 µM, first compound 0.03 µM): 43.9%
- viability, T/C (second compound 0.316 µM, first compound 0.0949 µM): 51.4%
- viability, T/C (second compound 0.316 µM, first compound 0.3 µM): 53.4%
- viability, T/C (second compound 0.316 µM, first compound 0.949 µM): 57%
- viability, T/C (second compound 0.316 µM, first compound 3 µM): 69.5%
- viability, T/C (second compound 1 µM, first compound 0.00949 µM): 59.8%
- viability, T/C (second compound 1 µM, first compound 0.03 µM): 46.4%
- viability, T/C (second compound 1 µM, first compound 0.0949 µM): 50.6%
- viability, T/C (second compound 1 µM, first compound 0.3 µM): 51.9%
- viability, T/C (second compound 1 µM, first compound 0.949 µM): 56.8%
- viability, T/C (second compound 1 µM, first compound 3 µM): 65.7%
- viability, T/C (second compound 3.16 µM, first compound 0.00949 µM): 56.1%
- viability, T/C (second compound 3.16 µM, first compound 0.03 µM): 46.7%
- viability, T/C (second compound 3.16 µM, first compound 0.0949 µM): 46.4%
- viability, T/C (second compound 3.16 µM, first compound 0.3 µM): 47.8%
- viability, T/C (second compound 3.16 µM, first compound 0.949 µM): 74.8%
- viability, T/C (second compound 3.16 µM, first compound 3 µM): 66.1%
- viability, T/C (second compound 10 µM, first compound 0.00949 µM): 55.3%
- viability, T/C (second compound 10 µM, first compound 0.03 µM): 55.8%
- viability, T/C (second compound 10 µM, first compound 0.0949 µM): 54%
- viability, T/C (second compound 10 µM, first compound 0.3 µM): 65.8%
- viability, T/C (second compound 10 µM, first compound 0.949 µM): 52.6%
- viability, T/C (second compound 10 µM, first compound 3 µM): 75%
